Test [1] has as its target T1, WEE1 (Homo sapiens, UniProt P30291+Q96SW2).
T1 construct: effects of the compounds of the present disclosure on the expression of target proteins in cells; endogenous in cells; host or cells: human PBMCs (Milecell Biotechnologies)
Briefly: Western blot, degradation of substrate protein in hPBMCs. It counts as cell-based. As to conditions: Western blot, 24 hours of compound treatment, compounds tested at 50 nM and 500 nM (concentration for the table not stated). (Immunoblotting shows a protein as a band on a membrane.)

In test [2] the target is T2, IKZF2 (Homo sapiens, UniProt Q96SW2+Q9UKS7).
T2 construct: effects of the compounds of the present disclosure on the expression of target proteins in cells; endogenous in cells; host or cells: human PBMCs (Milecell Biotechnologies)
T2 sequence (Q9UKS7 whole entry): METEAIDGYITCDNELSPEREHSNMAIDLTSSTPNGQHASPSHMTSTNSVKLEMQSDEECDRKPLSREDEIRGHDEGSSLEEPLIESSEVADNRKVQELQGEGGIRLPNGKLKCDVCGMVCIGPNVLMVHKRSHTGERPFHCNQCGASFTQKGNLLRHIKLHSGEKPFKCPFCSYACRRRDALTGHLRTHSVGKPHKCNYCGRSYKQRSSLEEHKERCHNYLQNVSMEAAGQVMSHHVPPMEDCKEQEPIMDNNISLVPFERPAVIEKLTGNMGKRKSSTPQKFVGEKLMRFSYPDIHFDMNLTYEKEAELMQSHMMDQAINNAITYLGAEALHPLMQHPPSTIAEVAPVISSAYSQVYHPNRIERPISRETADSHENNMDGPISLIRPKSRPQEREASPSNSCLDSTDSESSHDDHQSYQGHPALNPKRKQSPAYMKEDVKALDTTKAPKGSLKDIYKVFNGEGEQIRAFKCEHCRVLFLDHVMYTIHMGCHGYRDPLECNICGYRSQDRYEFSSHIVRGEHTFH
T2 sequence (Q96SW2 whole entry): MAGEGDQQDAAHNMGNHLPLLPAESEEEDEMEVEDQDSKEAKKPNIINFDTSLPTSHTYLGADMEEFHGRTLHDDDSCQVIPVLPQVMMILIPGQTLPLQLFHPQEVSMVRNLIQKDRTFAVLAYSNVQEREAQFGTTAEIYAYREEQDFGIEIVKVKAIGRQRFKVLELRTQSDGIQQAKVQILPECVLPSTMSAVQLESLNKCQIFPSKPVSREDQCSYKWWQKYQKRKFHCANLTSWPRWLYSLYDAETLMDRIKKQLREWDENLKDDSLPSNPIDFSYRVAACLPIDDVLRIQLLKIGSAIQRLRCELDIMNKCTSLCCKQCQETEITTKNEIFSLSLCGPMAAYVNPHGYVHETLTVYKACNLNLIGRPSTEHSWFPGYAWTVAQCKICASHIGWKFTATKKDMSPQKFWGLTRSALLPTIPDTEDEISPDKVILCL
T2 sequence (Q16531 whole entry partner): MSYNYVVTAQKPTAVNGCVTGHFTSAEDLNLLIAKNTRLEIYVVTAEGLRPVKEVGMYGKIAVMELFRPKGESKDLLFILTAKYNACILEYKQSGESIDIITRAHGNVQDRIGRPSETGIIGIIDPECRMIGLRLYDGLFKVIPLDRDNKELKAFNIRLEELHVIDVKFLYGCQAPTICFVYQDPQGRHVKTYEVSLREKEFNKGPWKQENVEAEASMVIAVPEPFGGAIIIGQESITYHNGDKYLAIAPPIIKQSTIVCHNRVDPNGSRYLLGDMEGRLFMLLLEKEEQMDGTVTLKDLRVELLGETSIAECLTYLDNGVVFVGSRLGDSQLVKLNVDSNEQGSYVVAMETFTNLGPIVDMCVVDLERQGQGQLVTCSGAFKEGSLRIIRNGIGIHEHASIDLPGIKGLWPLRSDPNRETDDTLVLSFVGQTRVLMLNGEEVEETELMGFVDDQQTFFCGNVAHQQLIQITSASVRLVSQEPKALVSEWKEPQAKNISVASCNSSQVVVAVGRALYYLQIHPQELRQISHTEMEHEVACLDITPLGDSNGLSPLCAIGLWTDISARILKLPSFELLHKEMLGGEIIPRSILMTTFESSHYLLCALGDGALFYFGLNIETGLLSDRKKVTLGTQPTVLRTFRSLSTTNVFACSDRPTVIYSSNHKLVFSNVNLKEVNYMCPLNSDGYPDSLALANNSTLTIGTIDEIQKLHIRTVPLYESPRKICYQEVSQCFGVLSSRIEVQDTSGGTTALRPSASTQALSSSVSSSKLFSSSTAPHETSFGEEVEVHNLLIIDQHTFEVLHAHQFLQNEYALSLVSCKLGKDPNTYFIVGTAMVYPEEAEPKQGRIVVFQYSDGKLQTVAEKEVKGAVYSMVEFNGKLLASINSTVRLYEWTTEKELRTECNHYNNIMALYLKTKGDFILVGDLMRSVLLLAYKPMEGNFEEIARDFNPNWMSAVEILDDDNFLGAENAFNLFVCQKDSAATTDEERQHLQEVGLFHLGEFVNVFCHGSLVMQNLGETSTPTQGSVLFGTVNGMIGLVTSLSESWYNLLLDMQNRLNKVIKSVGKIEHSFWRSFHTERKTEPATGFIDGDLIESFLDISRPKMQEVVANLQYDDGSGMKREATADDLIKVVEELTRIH
The description is as above. It counts as cell-based. As to conditions: Western blot, 24 hours of compound treatment, compounds tested at 50 nM and 500 nM (concentration for the table not stated).

The target of test [3] is T3, IKZF1 (Homo sapiens, UniProt Q13422+Q96SW2).
T3 construct: effects of the compounds of the present disclosure on the expression of target proteins in cells; endogenous in cells; host or cells: human PBMCs (Milecell Biotechnologies)
T3 sequence (Q13422 whole entry): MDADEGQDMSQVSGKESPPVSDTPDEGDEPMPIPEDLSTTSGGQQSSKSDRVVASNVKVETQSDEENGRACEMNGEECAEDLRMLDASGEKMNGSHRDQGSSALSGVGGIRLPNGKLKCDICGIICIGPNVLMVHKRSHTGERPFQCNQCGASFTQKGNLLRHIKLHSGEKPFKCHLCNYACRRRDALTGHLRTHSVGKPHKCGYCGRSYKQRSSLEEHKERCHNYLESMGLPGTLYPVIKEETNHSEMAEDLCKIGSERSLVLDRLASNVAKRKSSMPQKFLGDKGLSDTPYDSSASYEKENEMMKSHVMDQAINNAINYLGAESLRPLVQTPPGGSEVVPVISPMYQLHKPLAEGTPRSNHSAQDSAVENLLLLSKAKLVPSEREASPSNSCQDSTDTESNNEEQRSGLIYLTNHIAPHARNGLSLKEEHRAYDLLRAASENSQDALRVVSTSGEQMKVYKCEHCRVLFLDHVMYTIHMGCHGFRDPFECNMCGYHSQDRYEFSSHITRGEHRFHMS
T3 sequence (Q96SW2 whole entry): as the sequence (Q96SW2 whole entry) above
T3 sequence (Q16531 whole entry partner): as the sequence (Q16531 whole entry partner) above
Described as above. It counts as cell-based. As to conditions: Western blot, 24 hours of compound treatment, compounds tested at 50 nM and 500 nM (concentration for the table not stated).

Test [4] addresses T4, IKZF3 (Homo sapiens, UniProt Q96SW2+Q9UKT9).
T4 construct: effects of the compounds of the present disclosure on the expression of target proteins in cells; endogenous in cells; host or cells: human PBMCs (Milecell Biotechnologies)
Described as above. Type of test: cell-based. As to conditions: Western blot, 24 hours of compound treatment, compounds tested at 50 nM and 500 nM (concentration for the table not stated).

The target of test [5] is T5, CK1α (Homo sapiens, UniProt P48729+Q96SW2).
T5 construct: effects of the compounds of the present disclosure on the expression of target proteins in cells; endogenous in cells; host or cells: human PBMCs (Milecell Biotechnologies)
T5 sequence (P48729 whole entry): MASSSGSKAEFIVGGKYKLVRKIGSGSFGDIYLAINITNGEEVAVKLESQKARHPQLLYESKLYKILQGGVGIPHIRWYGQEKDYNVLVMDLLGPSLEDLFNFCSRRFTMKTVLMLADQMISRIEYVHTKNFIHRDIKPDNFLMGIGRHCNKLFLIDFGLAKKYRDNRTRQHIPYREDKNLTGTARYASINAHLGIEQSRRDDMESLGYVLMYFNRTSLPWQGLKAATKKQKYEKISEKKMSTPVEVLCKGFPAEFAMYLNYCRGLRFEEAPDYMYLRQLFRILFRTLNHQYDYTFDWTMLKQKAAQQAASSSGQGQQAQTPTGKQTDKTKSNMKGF
T5 sequence (Q96SW2 whole entry): as the sequence (Q96SW2 whole entry) above
T5 sequence (Q16531 whole entry partner): as the sequence (Q16531 whole entry partner) above
The description is as above. Type of test: cell-based. As to conditions: Western blot, 24 hours of compound treatment, compounds tested at 50 nM and 500 nM (concentration for the table not stated).

The test system of test [6] is GSPT1. The test is described as above. It counts as cell-based, Human. As to conditions: Western blot, 24 hours of compound treatment, compounds tested at 50 nM and 500 nM (concentration for the table not stated).
Test [7] concerns the target T6, human Cereblon WT GST-tagged protein (Homo sapiens, UniProt Q96SW2).
T6 construct: purchased CISBIO 64BDCRBNPEH
Put plainly: CRBN-binding affinity, HTRF (CEREBLON BINDING kit). As to conditions: for inhibition at 0.5 µM: read-out: Inhibition Rate at 0.5 µM (%); for inhibition at 2 µM: read-out: Inhibition Rate at 2 µM (%). On the technique in general: Time-resolved FRET reads energy transfer from a long-lived donor to a nearby acceptor.

T6 sequence (Q96SW2 whole entry): as the sequence (Q96SW2 whole entry) above
T1 sequence (P30291 whole entry): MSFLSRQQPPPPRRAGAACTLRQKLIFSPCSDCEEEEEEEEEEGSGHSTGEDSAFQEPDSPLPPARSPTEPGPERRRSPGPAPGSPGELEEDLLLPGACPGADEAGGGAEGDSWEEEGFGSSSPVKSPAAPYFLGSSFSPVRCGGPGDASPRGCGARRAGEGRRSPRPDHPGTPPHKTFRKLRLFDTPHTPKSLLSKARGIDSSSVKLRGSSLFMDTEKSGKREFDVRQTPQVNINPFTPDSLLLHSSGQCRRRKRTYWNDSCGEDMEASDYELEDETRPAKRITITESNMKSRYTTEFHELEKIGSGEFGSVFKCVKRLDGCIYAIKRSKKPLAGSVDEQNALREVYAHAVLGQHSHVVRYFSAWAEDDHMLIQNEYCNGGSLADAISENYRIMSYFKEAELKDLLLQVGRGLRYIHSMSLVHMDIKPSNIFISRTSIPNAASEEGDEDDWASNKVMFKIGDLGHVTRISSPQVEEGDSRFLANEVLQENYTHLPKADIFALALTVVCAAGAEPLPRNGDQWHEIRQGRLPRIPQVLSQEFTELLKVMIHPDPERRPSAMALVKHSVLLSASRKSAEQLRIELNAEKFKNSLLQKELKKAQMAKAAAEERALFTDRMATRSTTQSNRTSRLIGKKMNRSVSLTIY
T1 sequence (Q96SW2 whole entry): as the sequence (Q96SW2 whole entry) above
T1 sequence (Q16531 whole entry partner): as the sequence (Q16531 whole entry partner) above
T4 sequence (Q9UKT9 whole entry): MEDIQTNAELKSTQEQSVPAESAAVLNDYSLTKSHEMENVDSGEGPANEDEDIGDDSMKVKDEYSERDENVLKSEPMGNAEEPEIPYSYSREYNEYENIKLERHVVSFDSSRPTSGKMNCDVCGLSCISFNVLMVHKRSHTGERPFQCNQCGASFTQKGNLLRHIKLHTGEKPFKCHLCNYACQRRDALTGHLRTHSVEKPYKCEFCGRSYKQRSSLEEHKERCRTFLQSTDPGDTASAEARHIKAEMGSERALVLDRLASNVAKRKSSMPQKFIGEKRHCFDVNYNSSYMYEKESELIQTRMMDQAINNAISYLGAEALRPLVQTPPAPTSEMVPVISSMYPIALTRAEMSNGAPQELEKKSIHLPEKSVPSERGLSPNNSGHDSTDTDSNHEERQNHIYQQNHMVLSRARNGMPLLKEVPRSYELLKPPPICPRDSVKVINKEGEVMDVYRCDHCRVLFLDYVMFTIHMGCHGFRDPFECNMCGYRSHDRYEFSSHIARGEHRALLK
T4 sequence (Q96SW2 whole entry): as the sequence (Q96SW2 whole entry) above
T4 sequence (Q16531 whole entry partner): as the sequence (Q16531 whole entry partner) above

One may read the inhibition as the change of the read-out against control, counted positive when it falls. `O=C1CCC(N2Cc3cc(CN4CC=C(c5ccnc(F)c5F)CC4)ccc3C2=S)C(=O)N1` (centres unmarked) [GT-08474, 3-(5-((2',3'-difluoro-3,6-dihydro-[4,4'-bipyridin]-1(2H)-yl)methyl)-1-thioxoisoindolin-2-yl)piperidine-2,6-dione]: the “Wee1 substrate protein remaining %” value in test [1] is recorded as “B (80%< substrate protein remaining %≤ 100%)”. The “IKZF2 substrate protein remaining %” value in test [2] is “B (80%< substrate protein remaining %≤ 100%)”. The “IKZF 1 substrate protein remaining %” value in test [3] is “B (80%< substrate protein remaining %≤ 100%)”. Besides, the “IKZF3 substrate protein remaining %” value in test [4] is given as “B (80%< substrate protein remaining %≤ 100%)”. For the same molecule, the “CK1α substrate protein remaining %” value in test [5] was “B (80%< substrate protein remaining %≤ 100%)”. Moreover, the “GSPT1 substrate protein remaining %” value in test [6] is listed as “A (0% ≤ substrate protein remaining % ≤ 80%)”. Further, in test [7], the inhibition at 0.5 µM was in the range of 80 to 100% and the inhibition at 2 µM fell in the range of 80 to 100%.

On to `O=C1CCC(N2Cc3cc(CN4CCC(c5ccnc(Cl)c5Cl)CC4)ccc3C2=S)C(=O)N1` (centres unmarked) [GT-08475, 3-(5-((4-(2,3-dichloropyridin-4-yl)piperidin-1-yl)methyl)-1-thioxoisoindolin-2-yl)piperidine-2,6-dione], for which, in test [1], the “Wee1 substrate protein remaining %” value is listed as “B (80%< substrate protein remaining %≤ 100%)”. For the same molecule, the “IKZF2 substrate protein remaining %” value in test [2] is recorded as “B (80%< substrate protein remaining %≤ 100%)”. Moreover, in test [3], the “IKZF 1 substrate protein remaining %” value is “B (80%< substrate protein remaining %≤ 100%)”. In addition, in test [4], the “IKZF3 substrate protein remaining %” value was “B (80%< substrate protein remaining %≤ 100%)”. Also, the “CK1α substrate protein remaining %” value in test [5] is reported as “B (80%< substrate protein remaining %≤ 100%)”. Also, the “GSPT1 substrate protein remaining %” value in test [6] is “A (0% ≤ substrate protein remaining % ≤ 80%)”. In addition, in test [7], the inhibition at 0.5 µM was in the range of 60 to 80% and the inhibition at 2 µM fell in the range of 80 to 100%.

For `O=C1CCC(N2Cc3cc(CN4CC5CCC(C4)N5c4cccc(Cl)c4Cl)ccc3C2=S)C(=O)N1` (centres unmarked) [GT-08479, 3-(5-((8-(2,3-dichlorophenyl)-3,8-diazabicyclo[3.2.1]octan-3-yl)methyl)-1-thioxoisoindolin-2-yl)piperidine-2,6-dione], the “Wee1 substrate protein remaining %” value in test [1] was “B (80%< substrate protein remaining %≤ 100%)”. Besides, the “IKZF2 substrate protein remaining %” value in test [2] was “B (80%< substrate protein remaining %≤ 100%)”. Also, the “IKZF 1 substrate protein remaining %” value in test [3] is “B (80%< substrate protein remaining %≤ 100%)”. The “IKZF3 substrate protein remaining %” value in test [4] is “B (80%< substrate protein remaining %≤ 100%)”. In addition, in test [5], the “CK1α substrate protein remaining %” value is listed as “B (80%< substrate protein remaining %≤ 100%)”. Besides, the “GSPT1 substrate protein remaining %” value in test [6] is listed as “A (0% ≤ substrate protein remaining % ≤ 80%)”. For the same molecule, in test [7], the inhibition at 0.5 µM lay in the range of 40 to 53% and the inhibition at 2 µM lay within 60 to 80%.

`Cn1cc(C2=CCN(Cc3cccc4c3CN(C3CCC(=O)NC3=O)C4=S)CC2)c2ccc(F)cc21` (centres unmarked) [GT-08493, 3-(4-((4-(6-fluoro-1-methyl-1H-indol-3-yl)-3,6-dihydropyridin-1(2H)-yl)methyl)-1-thioxoisoindolin-2-yl)piperidine-2,6-dione]: the “Wee1 substrate protein remaining %” value in test [1] is recorded as “B (80%< substrate protein remaining %≤ 100%)”. Besides, in test [2], the “IKZF2 substrate protein remaining %” value is “A (0% ≤ substrate protein remaining % ≤ 80%)”. Also, the “IKZF 1 substrate protein remaining %” value in test [3] is given as “B (80%< substrate protein remaining %≤ 100%)”. The “IKZF3 substrate protein remaining %” value in test [4] is on record as “B (80%< substrate protein remaining %≤ 100%)”. Moreover, in test [5], the “CK1α substrate protein remaining %” value was “B (80%< substrate protein remaining %≤ 100%)”. For the same molecule, the “GSPT1 substrate protein remaining %” value in test [6] is “A (0% ≤ substrate protein remaining % ≤ 80%)”. Also, in test [7], the inhibition at 0.5 µM was 40 to 53% and the inhibition at 2 µM was in the range of 80 to 100%.
